# According to patent US8283312B2, “Compositions and methods for modulating body weight and treating obesity-related disorders” (The Research Foundation of State University of New York, priority 2005, dated 2012):
# Read-outs that look alike come from different tables or passages of the source. Where no end group is shown, it is not given here. The star is where a group is joined. Octanoyl = CCCCCCCC(=O)*
# How the values were obtained:
# [1] = test system: RYGB rats; test: Food intake and body weight of RYGB rats given test substance via implanted intraperitoneal pump; type: in vivo, rat
# Method: Daily Measurements: Postoperatively, daily body weight (BW) and caloric intake were measured each morning. The PF group was given the average food intake consumed the previous day by the RYGB group. Daily changes in BW, plotted every three day, are shown in FIG. 2 and the mean change per post-operative time periods are expressed in Table 1 using the same construct as earlier reported in our previous study (6).
# A pump (Model 2002, Alza Corp. Palo Alto, Calif.) was implanted i.p. in each of 5 RYGB rats thirty days after RYGB. The pump was loaded with either the PYY receptor antagonist, B11E0246 (TOCRIS, Ellisville, Mo.), or a control solution (DMSO), and released its ingredient at the rate of about 8.3 μl/day (360 nm B11E0246/Kg/day). Food intake was measured as described above.
# (§1) In a second experiment, a pump was implanted i.p. in each of 5 RYGB rats thirty days after RYGB. The pump was loaded with either ghrelin, or a control solution (DMSO), and released its ingredient at the rate of 8.3 μl/day (60 ng ghrelin/Kg/day). Food intake was measured as described above.
# as §1, with “third” for “second”, “either a combination of the PYY receptor antagonist B11E0246 and” for “either”, “(DMSO). The pump” for “(DMSO), and”, “(360 nm B11E0246/Kg/day and 60” for “(60”
# [2] = test system: mice; conditions: cited from earlier work
# [3] = test system: obese subjects; conditions: 12 obese subjects, as compared to 12 lean subjects; cited from earlier work
# [4] = physiological levels of ghrelin (60 ng/Kg/day) alone, i.p. pump, FIG. 7
compound,measurement,setting,value
N=C(N)NCCC[C@H](NC(=O)CC1(CC(=O)N2CCN(C3c4ccccc4NC(=O)c4ccccc43)CC2)CCCC1)C(=O)NCCn1c(=O)n(-c2ccccc2)n(-c2ccccc2)c1=O (stereo partly drawn) [B11E0246],daily and cumulative food intake,"[1]; i.p. pump implanted thirty days after RYGB, 360 nm B11E0246/Kg/day, vs control solution (DMSO), FIG. 6",increased daily and cumulative food intake
PYY(3-36): functional analog of PYY; peptide consisting of amino acid 3 to 36 of PYY,food intake,[2]; freely feeding mice,unchanged
same,food intake,"[2]; single intraperitoneal injection, 24 h fasted mice",significant reduction of food intake for 24 h but not for 48 h
same,decrease of ad libitum food intake per meal,[3],33%
"ghrelin: peptide of 28 amino acids, in which the serine 3 residue is n-octanoylated; gut hormone that stimulates food intake (GSS(Octanoyl)FLSPEHQRVQQRKESKKPPAKLQPR; UniProt Q9UBU3 24-51, looked up)",body weight,[1]; [4],did not significantly increase food intake or body weight
same,food intake,[1]; [4],did not significantly increase food intake or body weight
